Our source for the IC50 values is patent EP4553077A1 (Kinoteck Therapeutics Co., Ltd, priority 2022, dated 2024).

The target in the test is Ba/F3-TEL-FGFR2 (Homo sapiens, UniProt P21802+P41212). The test is described as follows: Cell viability (proliferation inhibition) of Ba/F3 cells, CellTiter Glo. The settings on record: read-out: Ba/F3 cell FGFR2 (IC50 nM), 72 h.
Ba/F3-TEL-FGFR2, sequence (P21802 481-770 limits assumed, one chain of several): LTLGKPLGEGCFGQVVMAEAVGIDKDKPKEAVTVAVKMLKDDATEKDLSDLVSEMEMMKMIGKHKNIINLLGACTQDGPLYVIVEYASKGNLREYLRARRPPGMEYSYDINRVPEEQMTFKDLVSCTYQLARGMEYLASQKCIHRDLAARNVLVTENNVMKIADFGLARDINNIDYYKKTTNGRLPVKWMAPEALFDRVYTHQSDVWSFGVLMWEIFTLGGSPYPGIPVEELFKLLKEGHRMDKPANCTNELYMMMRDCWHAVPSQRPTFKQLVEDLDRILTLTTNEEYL

With `C=C(F)C(=O)N1CC=C(c2c(-c3ccc(N=S4(=O)CCCCC4)cc3)c3c(N)ncnc3n2C)CC1` [Compound 65, 1-(4-(4-amino-7-methyl-5-(4-((1-oxotetrahydro-2H-1 λ^6-thiopyran-1-ylidene)amino)phenyl)-7H-pyrrolo[2,3-d]pyrimidin-6-yl)-3,6-dihydropyridine-1(2H)-yl) -2-fluoropropan-2-enyl-1-one], the IC50 turned out to be 121 nM.

As for `[2H]C([2H])([2H])n1c(-c2ccc(NC(=O)C(=C)C)cc2F)c(-c2ccc(N=S(C)(=O)c3ccccc3)c(F)c2)c2c(N)ncnc21` (stereo not drawn) [Compound 96, N-(4-(4-amino-5-(3-fluoro-4-((methyl (oxo) (phenyl) - λ^6-sulfaneylidene)amino)phenyl) -7-(methyl-d3) -7H-pyrrolo [2,3-d]pyrimidin-6-yl) -3-fluorophenyl) methacrylamide], the IC50 was 29.8 nM.

In the case of `C=C(C)C(=O)Nc1ccc(-c2c(-c3ccc(N=S4(=O)CCCC4)c(F)c3)c3c(N)ncnc3n2C)c(C#N)c1` [Compound 25, N-(4-(4-amino-5-(3-fluoro-4-((1-oxotetrahydro-1 λ^6-thiophene-1-ylidene)amino)phenyl) -7-methyl-7H-pyrrolo [2,3-d]pyrimidin-6-yl) -3-cyanophenyl) methacrylamide], the IC50 worked out at 38.7 nM.

Consider `C=C(C)C(=O)Nc1ccc(-c2c(-c3ccc(N=S4(=O)CCCCC4)nc3)c3c(N)ncnc3n2C)cc1` [Compound 17, N-[4-(4-amino-7-methyl-5-(6-((1-oxotetrahydro-2H-1 λ^6-thiopyran-1-ylidene)amino)pyridin-3-yl)pyrrolo [2,3-d]pyrimidin-6-yl)phenyl) methacrylamide], for which the IC50 came out at 4620 nM.

On to `C/C=C/C(=O)Nc1ccc(-c2c(-c3ccc(N=S4(=O)CCCCC4)c(F)c3)c3c(N)ncnc3n2C)cc1` [Compound 15, (E)-N-(4-(4-amino-5-(3-fluoro-4-((1-oxotetrahydro-2H-1λ^6-thiopyran-1-ylidene)amino)phenyl)-7-methyl-7H-pyrrolo [2,3-d]pyrimidin-6-yl) -phenyl)-2-butenamide], for which the IC50 worked out at 15.4 nM.

Regarding `[2H]C([2H])([2H])n1c(-c2cc(C)c(NC(=O)C(=C)C)cc2F)c(-c2ccc(N=S3(=O)CCCC3)c(F)c2)c2c(N)ncnc21` [Compound 91, N-(4-(4-amino-5-(3-fluoro-4-((1-tetrahydro-1λ^6-thiophene-1-ylidene)amino)phenyl) -7-(methyl-d3) -7H-pyrrolo [2,3-d]pyrimidin-6-yl) -5-fluoro-2-methylphenyl) methacrylamide], the IC50 was 23.9 nM.

In the case of `C=C(C)C(=O)Nc1ccc(-c2c(-c3ccc(N=S(=O)(N(C)C)C(F)(F)F)cc3F)c3c(N)ncnc3n2C)cc1` (stereo not drawn) [Compound 52, N-(4-(4-amino-5-(4-(((dimethylamino) (oxo) (trifluoromethyl) -λ^6-sulfanylidene)amino) -2-fluorophenyl) -7-methyl-7H-pyrrolo [2,3-d]pyrimidin-6-yl)phenyl) methacrylamide], the IC50 worked out at 2.3 nM.

`CC#CC(=O)Nc1ccc(-c2c(-c3ccc(N=S4(=O)CCCC4)cc3)c3c(N)ncnc3n2C)c(F)c1` [Compound 112, N-(4-(4-amino-7-methyl-5-(4-((1-tetrahydro-1λ^6-thiophene-1-ylidene)amino)phenyl) -7H-pyrrolo [2,3-d]pyrimidin-6-yl) -3-fluorophenyl) but-2-ynamide]: the IC50 came to 2 nM.

Turning to `C=C(C)C(=O)Nc1ccc(-c2c(-c3ccc(N=S(=O)(NCC)C(F)(F)F)c(F)c3)c3c(N)ncnc3n2C)cc1` (stereo not drawn) [Compound 71, N-(4-(4-amino-5-(4-(((ethylamino)(oxo)(trifluoromethyl)-1 λ^6-sulfaneylidene)amino)-3-fluorophenyl)-7-methyl-7H-pyrrolo[2,3-d]pyrimidin-6-yl)phenyl) methacrylamide], the IC50 is 2.5 nM.
